According to patent publication US20200253929A1, “TREATMENT OF EPILEPSY” (priority 2017, published 2020):

How the values were obtained:
[1] = Kinetic solubility assay; assay type: physicochemical; conditions: for Kinetic solubility: 2 h incubation, absorbance 620 nm
Experimental: Protocol was based on literature [Perez et al. (2015) J Biomol Screen 20, 254-264]. The kinetic solubility assay was conducted in 96-well, flat-bottom, transparent polystyrene plates (Costar 9018, Corning, Tewksbury, Mass.). Six two-fold serial dilutions of an initial 10 mM test compound solution were prepared in DMSO. After a 2 h incubation period (to avoid missing slow precipitation) absorbance was measured at 620 nm by an EnVision multilabel plate reader. The kinetic solubility was estimated from the concentration of test compound that produced an increase in absorbance above the background levels (i.e. 1% DMSO in buffer).

[2] = molecular target: T1, hERG channel (Homo sapiens, UniProt Q12809); experiment: Cardiotoxicity fluorescence-based assay, hERG channel; assay type: cell-based; conditions: HEK293 cells
T1 construct: expressed in transfected cells; host or cells: HEK293
Experimental: Fluorescence-based assays were performed using HEK293 cell lines that stably express the Nav1.5-channel, Cav1.2-channel or hERG K+-channel, using FMP Red Dye (Molecular Devices), calcium-sensitive fluorescent dye Fluo-4 (Invitrogen) and FIuxOR™ reagent (Invitrogen), respectively, and a FLIPR Tetra High-Throughput Cellular Screening System (Molecular Devices), according to manufacturer's protocols (Molecular Devices). Tetrodotoxin (TTX), israpidine and nicarpidine, and astemizole and haloperidol were used as standard sodium channel, calcium channel, and hERG channel blockers. Data were analyzed using Genedata Screener.

[3] = system: NMRI mice; experiment: Mouse 6-Hz (44 mA) psychomotor seizure model; assay type: in vivo; conditions: for mean seizure duration / mice protected against induced seizures: 30 min before electrical stimulation
Description: Although the zebrafish model has a high degree of genetic, physiological and pharmacological conservation^13, it is more distinct from humans than mammals. Therefore, we were interested to see if the observed antiseizure properties of azaspirofuran A and pseurotin A2 would translate to a rodent model. The mouse 6-Hz (44 mA) psychomotor seizure model was chosen, because it can detect compounds with novel antiseizure mechanisms and with potential against drug-resistant seizures [Barton et al. (2001) Epilepsy Res 47, 217-227; Wilcox et al. (2013) Epilepsia 54 S4, 24-34]. In this model drug-resistant focal impaired awareness seizures [Fisher et al. (2017) Epilepsia 58, 531-542], previously referred to as complex partial or psychomotor seizures [Holcomb and Dean (2011) Psychomotor Seizures, In Encyclopedia of Child Behavior and Development (Goldstein, S., and Naglieri, J. A., Eds.), pp 1191-1192, Springer US, Boston, Mass.], are induced by low frequency, long duration corneal electrical stimulation (6 Hz, 0.2 ms rectangular pulse width, 3 s duration, 44 mA) and are characterized by stun, twitching of the vibrissae, forelimb clonus, and Straub tail. […] Stimulated mice with a seizure duration shorter than 27 seconds were thus considered to be protected. […] Besides, this study provides another example of the translation of results from zebrafish to rodent seizure models.
Experimental procedure was described in Copmans et al. (2018) Neurochem. Int. 112, 124-133. before Buenafe et al. cited above; Orellana-Paucar cited above. In brief, NMRI mice (average weight 28 g, range 23-32 g) were randomly divided into control and treatment groups (n=5-10). 50 μL (injection volume was adjusted to the individual weight) of VHC (PEG200:DMSO:water; 0.25:0.25:0.5) or treatment (an ASD or test compound dissolved in VHC) was i.p. injected in mice and after 30 or 120 (in case of phenytoin, as reported by Barton et al. cited above) min psychomotor seizures were induced by low frequency, long duration corneal electrical stimulation (6 Hz, 0.2 ms rectangular pulse width, 3 s duration, 44 mA) using an ECT Unit 5780 (Ugo Basile, Comerio, Italy). Mice were manually restrained and a drop of ocular anesthetic (0.5% lidocaine) was applied to the corneas before stimulation. Following electrical current stimulation, the mouse was released in a transparent cage for behavioral observation, which was video-recorded. […] In addition, facial and mouth jerking as well as head nodding were observed occasionally. Mice displaying normal exploratory and locomotion behavior within a time period of 26 seconds were considered to be protected against the induced psychomotor seizures. Seizure durations were measured during the experiment by experienced researchers, familiar with the different seizure behaviors. In addition, seizure durations were determined by blinded video analysis to confirm or correct the initial observations. Data are expressed as mean±SD.

[4] = system: HEPG2 cells; experiment: Cell viability MTT assay, HEPG2 cells; assay type: cell-based, human; conditions: 24 h incubation; for IC50: read-out: Cytotoxicity HEPG2 cells IC50
Experimental: Protocol was based on literature [Patel and Patel. (2011) J. App. Pharm. Sci 1, 167-171]. Three cell lines were used: a) Hep G2 (HB-8065), a well-differentiated human hepatocellular carcinoma cell line, b) THLE-2, human liver epithelial cells transformed with SV40 large T-antigen and c) SHSYSY, a thrice-cloned sub-line of a human metastatic bone tumor. Cells were seeded at a concentration of 1×10^4 cells/well in 200 μL culture medium and incubated at 37° C. in 5% CO2 using 96-well plates for 24 h. Next, the medium was replaced with medium complemented with test compounds. After another 24 h incubation, the medium was replaced by 100 μL of a MTT (3-(4,5-dimethylthiazol-2-yl)-2,5-diphenyltetrazolium bromide) solution (5 mg/mL in PBS and diluted at 0.5 mg/mL in MEM without phenol red). The plates were gently shaken and incubated for 3 hours at 37° C. in a 5% CO2 incubator. The supernatant was removed and 100 μL of 100% DMSO was added. The plates were gently shaken to solubilize the formed formazan. The absorbance was measured using a multireader (Victor2 (Wallac)) at a wavelength of 570 nm.

[5] = molecular target: T2, CYP3A4 (Homo sapiens, UniProt P08684); experiment: CYP450 enzyme inhibition assay, CYP3A4; assay type: in vitro ADME; conditions: human liver microsomes; for IC50: testosterone probe
T2 construct: containing Human Liver Microsomes (HLM) (0.5 mg/mL); from tissue; host or cells: human liver microsomes
Experimental: Protocol was based on literature [Perez-Del Palacio et al. (2017) Front Pharmacol 8, 202]. Assessment of CYP450 inhibition was conducted in 96-well plate format at 37° C. Test compounds were dissolved in DMSO/acetonitrile (2 μL) and diluted in 98 μL NADPH solution (2 mM). Reactions were started by addition of 100 μL potassium phosphate buffer (200 mM, pH 7.4) containing Human Liver Microsomes (HLM) (0.5 mg/mL). Probe reactions for CYP3A4, CYP2D6 and CYP2C9 were conducted with 50 μM testosterone, 22 μM dextromethorphan and 10 μM diclofenac for 15 min. Reactions were terminated with the addition of a quench solution (90 μL) of acetonitrile containing internal standards for LC-MS/MS determination (60 ppb cortisone, 100 ppb 4′-hydroxydiclofenac 13C6, 60 ppb levallorphan).

T2 sequence (P08684 whole entry): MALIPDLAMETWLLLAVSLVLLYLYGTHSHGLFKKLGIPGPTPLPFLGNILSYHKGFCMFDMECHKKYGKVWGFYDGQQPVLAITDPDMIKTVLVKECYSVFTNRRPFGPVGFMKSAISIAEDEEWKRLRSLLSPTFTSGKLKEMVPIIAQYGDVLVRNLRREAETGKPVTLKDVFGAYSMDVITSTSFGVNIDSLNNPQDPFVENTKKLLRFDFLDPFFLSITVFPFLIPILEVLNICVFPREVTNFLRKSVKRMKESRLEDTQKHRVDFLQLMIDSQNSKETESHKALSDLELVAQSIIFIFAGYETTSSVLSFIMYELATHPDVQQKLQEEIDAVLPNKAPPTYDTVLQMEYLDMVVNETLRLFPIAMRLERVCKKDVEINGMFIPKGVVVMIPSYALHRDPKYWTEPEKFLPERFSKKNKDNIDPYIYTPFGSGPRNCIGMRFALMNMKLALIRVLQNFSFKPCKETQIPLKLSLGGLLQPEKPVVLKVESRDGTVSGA
T1 sequence (Q12809 whole entry): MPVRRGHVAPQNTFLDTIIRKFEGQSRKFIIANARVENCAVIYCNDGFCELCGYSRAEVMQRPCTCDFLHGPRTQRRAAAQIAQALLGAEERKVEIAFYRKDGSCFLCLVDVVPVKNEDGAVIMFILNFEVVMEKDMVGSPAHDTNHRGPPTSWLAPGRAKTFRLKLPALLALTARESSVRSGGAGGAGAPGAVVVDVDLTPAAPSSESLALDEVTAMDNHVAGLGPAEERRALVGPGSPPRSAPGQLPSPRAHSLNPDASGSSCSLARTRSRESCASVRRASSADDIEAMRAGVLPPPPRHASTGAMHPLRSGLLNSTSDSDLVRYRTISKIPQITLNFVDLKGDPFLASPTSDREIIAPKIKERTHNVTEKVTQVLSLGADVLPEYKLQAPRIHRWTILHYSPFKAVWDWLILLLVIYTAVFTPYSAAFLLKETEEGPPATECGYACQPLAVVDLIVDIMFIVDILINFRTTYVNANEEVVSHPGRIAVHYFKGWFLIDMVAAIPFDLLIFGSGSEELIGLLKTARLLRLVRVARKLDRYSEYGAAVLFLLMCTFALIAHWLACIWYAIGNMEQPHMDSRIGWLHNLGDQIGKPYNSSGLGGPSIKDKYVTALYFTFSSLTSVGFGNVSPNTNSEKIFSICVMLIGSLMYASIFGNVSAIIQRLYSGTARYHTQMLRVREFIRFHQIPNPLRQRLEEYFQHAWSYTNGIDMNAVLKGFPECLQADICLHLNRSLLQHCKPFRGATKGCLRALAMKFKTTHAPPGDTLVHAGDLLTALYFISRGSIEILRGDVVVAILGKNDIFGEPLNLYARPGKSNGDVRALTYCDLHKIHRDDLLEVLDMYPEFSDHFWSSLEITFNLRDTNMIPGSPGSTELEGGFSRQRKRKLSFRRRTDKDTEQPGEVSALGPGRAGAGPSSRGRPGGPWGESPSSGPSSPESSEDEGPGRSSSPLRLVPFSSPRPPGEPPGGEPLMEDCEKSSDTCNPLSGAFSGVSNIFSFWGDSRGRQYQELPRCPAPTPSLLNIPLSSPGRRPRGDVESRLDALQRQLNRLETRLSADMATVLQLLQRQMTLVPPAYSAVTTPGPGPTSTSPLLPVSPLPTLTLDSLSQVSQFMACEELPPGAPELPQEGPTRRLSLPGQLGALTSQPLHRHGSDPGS

Compound	Kinetic solubility, rating [1]	Kinetic solubility [1] [µM]	Cardiotoxicity hERG channel, effect [2]	IC50 [2] [µM]	mean seizure duration ([3]; 40 mg/kg i.p.) [s]	mice protected against induced seizures ([3]; 40 mg/kg i.p.)	antiseizure activity ([3]; 20 and 10 mg/kg i.p.)	Cytotoxicity HEPG2 cells, effect [4]	IC50 [4] [µM]	CYP3A4, effect [5]	IC50 [5] [µM]	antiseizure activity ([3]; 2.5 mg/kg i.p.)	mean seizure duration ([3]; 10 mg/kg i.p.) [s]	mice protected against induced seizures ([3]; 10 mg/kg i.p.)
CCc1ccc(C2=C(C)C(=O)C3(O2)C(=O)NC(OC)(C(=O)c2ccccc2)C3O)o1 (stereo not drawn) [azaspirofuran A]	Acceptable	>100	No effect	> 50	24	5 out of 7	no significant effects	No effect	> 50	No effect	> 88	–	–	–
CC/C=C\[C@H](O)[C@H](O)C1=C(C)C(=O)[C@]2(O1)C(=O)N[C@](OC)(C(=O)c1ccccc1)[C@H]2O [pseurotin A2]	Acceptable	>100	No effect	> 50	26	4 out of 7	–	No effect	> 50	No effect	> 88	inactive	27	5 out of 6
